Laboratory results: the supplement of paper PMC11368000

Tests used:
Conditions in all cases: exposure time: 90 min
1516 [1] = donor line of iPSC-derived cardiomyocytes; assay: POD (EC05) for increase in Ca2+ transient decay-to-rise ratio (QT prolongation) vs vehicle; higher = less potent (higher point of departure)
Outline: (§1)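 A FLIPR Tetra recorded Ca2+ flux in dye-loaded human iPSC-derived cardiomyocytes from 16 donors before and after 90 min at 37 °C with 0.1, 1, 10 and 100 µM (final concentrations, 0.5% DMSO). Vehicle-normalised beat frequency, decay-to-rise ratio or peak frequency were fitted with hierarchical Bayesian Hill models to give donor-specific points of departure. The threshold was a 5% change, or for peak frequency a 95% loss.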

1518 [2] = donor line of iPSC-derived cardiomyocytes; assay: as above
Outline: as §1

1531 [3] = donor line of iPSC-derived cardiomyocytes; assay: as above
Outline: as §1

1392 = donor line of iPSC-derived cardiomyocytes; assay: POD (EC95) for loss of peak frequency (asystole) vs vehicle; higher = less potent (higher point of departure)
Method: (§2)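 Human iPSC-derived cardiomyocytes from 16 donors were exposed for 90 min at 37 °C to each PFAS at 0.1, 1, 10 and 100 µM in 0.5% DMSO, 384-well plates. Kinetic Ca2+ flux (FLIPR) and Hoechst nuclei counts were normalised to vehicle wells and fitted with a hierarchical Bayesian Hill model to give donor-specific PODs: EC05 for beat-rate increase or decrease and for decay-to-rise ratio increase (QT proxy), EC95 for peak-frequency loss (asystole), EC10 for total cell number loss. 0.03 µM is the lower bound.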

20032 = donor line of iPSC-derived cardiomyocytes; assay: as above
Method: as §2

1516 [4] = assay: as above
Method: as §2

1309 = donor line of iPSC-derived cardiomyocytes; assay: as above
Method: as §2

1535 = donor line of iPSC-derived cardiomyocytes; assay: as above
Method: as §2

1118 = donor line of iPSC-derived cardiomyocytes; assay: as above
Method: as §2

11235 = donor line of iPSC-derived cardiomyocytes; assay: as above
Method: as §2

1368 = donor line of iPSC-derived cardiomyocytes; assay: as above
Method: as §2

1434 = donor line of iPSC-derived cardiomyocytes; assay: as above
Method: as §2

30171 = donor line of iPSC-derived cardiomyocytes; assay: as above
Method: as §2

1518 [5] = assay: as above
Method: as §2

30145 [6] = donor line of iPSC-derived cardiomyocytes; assay: as above
Method: as §2

1083 = donor line of iPSC-derived cardiomyocytes; assay: as above
Method: as §2

20084 = donor line of iPSC-derived cardiomyocytes; assay: as above
Method: as §2

1565 = donor line of iPSC-derived cardiomyocytes; assay: as above
Method: as §2

1531 [7] = assay: as above
Method: as §2

30145 [8] = assay: POD (EC05) for increase in beat frequency (positive chronotrope) vs vehicle; higher = less potent (higher point of departure)
Outline: as §1

| Compound | POD vs vehicle 1516 [1] [µM] | POD vs vehicle 1518 [2] [µM] | POD vs vehicle 1531 [3] [µM] | POD vs vehicle 1392 [µM] | POD vs vehicle 20032 [µM] | POD vs vehicle 1516 [4] [µM] | POD vs vehicle 1309 [µM] | POD vs vehicle 1535 [µM] | POD vs vehicle 1118 [µM] | POD vs vehicle 11235 [µM] | POD vs vehicle 1368 [µM] | POD vs vehicle 1434 [µM] | POD vs vehicle 30171 [µM] | POD vs vehicle 1518 [5] [µM] | POD vs vehicle 30145 [6] [µM] | POD vs vehicle 1083 [µM] | POD vs vehicle 20084 [µM] | POD vs vehicle 1565 [µM] | POD vs vehicle 1531 [7] [µM] | POD vs vehicle 30145 [8] [µM] |
| --- | --- | --- | --- | --- | --- | --- | --- | --- | --- | --- | --- | --- | --- | --- | --- | --- | --- | --- | --- | --- |
| NC(=O)C(F)(F)C(F)(F)C(F)(F)C(F)(F)C(N)=O [Octafluoroadipamide] | > 100 | > 100 | > 100 | > 100 | > 100 | > 100 | > 100 | > 100 | > 100 | > 100 | > 100 | > 100 | > 100 | > 100 | > 100 | > 100 | > 100 | > 100 | > 100 | > 100 |
| O=S(=O)(O)CCC(F)(F)C(F)(F)C(F)(F)C(F)(F)F [4:2 Fluorotelomer sulfonic acid] | > 100 | > 100 | > 100 | > 100 | > 100 | > 100 | > 100 | > 100 | > 100 | > 100 | > 100 | > 100 | > 100 | > 100 | > 100 | > 100 | > 100 | > 100 | > 100 | – |
| O=C(O)C(F)(F)C(F)(F)C(F)(F)C(F)(F)C(F)(F)C(F)(F)C(F)(F)F [Perfluorooctanoic_acid] | > 100 | > 100 | > 100 | > 100 | > 100 | > 100 | > 100 | > 100 | > 100 | 92.2 | > 100 | > 100 | > 100 | > 100 | > 100 | > 100 | > 100 | > 100 | > 100 | > 100 |
| O=C(O)CCC(F)(F)C(F)(F)C(F)(F)C(F)(F)C(F)(F)F [2H,2H,3H,3H-Perfluorooctanoic_acid] | 43.9 | > 100 | 17 | 73 | > 100 | 75.1 | > 100 | > 100 | 67.4 | 59.9 | > 100 | 90.8 | 71.8 | > 100 | 77.8 | > 100 | 66.4 | > 100 | 92.7 | > 100 |
| O=S(=O)(O)C(F)(F)C(F)(F)C(F)(F)C(F)(F)F [Perfluorobutanesulfonic_acid] | 39.7 | > 100 | > 100 | > 100 | > 100 | > 100 | > 100 | > 100 | > 100 | > 100 | > 100 | > 100 | > 100 | > 100 | > 100 | > 100 | > 100 | > 100 | > 100 | – |
| CC(O)C(F)(F)C(F)(F)F (stereo not given) [1-Pentafluoroethylethanol] | > 100 | > 100 | > 100 | > 100 | > 100 | > 100 | > 100 | > 100 | > 100 | > 100 | > 100 | > 100 | > 100 | > 100 | > 100 | > 100 | > 100 | > 100 | > 100 | > 100 |
| O=C(O)C(F)(F)C(F)(F)C(F)(F)C(F)(F)C(F)(F)C(F)(F)C(F)(F)C(F)(F)C(F)(F)F [Perfluorodecanoic_acid] | > 100 | > 100 | > 100 | > 100 | > 100 | 68.8 | > 100 | > 100 | 9.5 | 67.4 | > 100 | 67.4 | 36.5 | > 100 | > 100 | 74.6 | > 100 | > 100 | > 100 | > 100 |
| NC(=O)C(F)(F)C(F)(F)C(F)(F)C(F)F | – | 0.19 | 2.04 | > 100 | > 100 | > 100 | > 100 | > 100 | > 100 | > 100 | > 100 | > 100 | > 100 | > 100 | > 100 | > 100 | > 100 | > 100 | > 100 | – |
| O=C(O)C(F)(F)C(F)(F)C(F)(F)C(F)(F)C(F)(F)C(F)(F)C(F)(F)C(F)(F)Cl [9-Chloro-perfluorononanoic_acid] | > 100 | > 100 | > 100 | > 100 | > 100 | 90.9 | > 100 | > 100 | 84.3 | 14.7 | > 100 | 87.4 | 44.1 | > 100 | > 100 | > 100 | > 100 | > 100 | > 100 | > 100 |
| O=P(O)(O)CCC(F)(F)C(F)(F)C(F)(F)C(F)(F)C(F)(F)C(F)(F)C(F)(F)C(F)(F)F [((Perfluorooctyl)ethyl)phosphonic_acid] | > 100 | > 100 | > 100 | > 100 | > 100 | > 100 | > 100 | > 100 | > 100 | > 100 | > 100 | > 100 | > 100 | > 100 | > 100 | > 100 | > 100 | > 100 | > 100 | > 100 |
| O=S(=O)(O)CCC(F)(F)C(F)(F)C(F)(F)C(F)(F)C(F)(F)C(F)(F)F [6:2 Fluorotelomer sulfonic acid] | > 100 | > 100 | > 100 | > 100 | > 100 | > 100 | > 100 | > 100 | > 100 | > 100 | > 100 | > 100 | > 100 | > 100 | > 100 | > 100 | > 100 | > 100 | > 100 | > 100 |
| O=C(O)C=CC(F)(C(F)(F)F)C(F)(F)F [3-(Perfluoroisopropyl)-2-propenoic_acid] | > 100 | > 100 | > 100 | > 100 | > 100 | > 100 | > 100 | > 100 | > 100 | > 100 | > 100 | > 100 | > 100 | > 100 | > 100 | > 100 | > 100 | > 100 | > 100 | > 100 |
| NS(=O)(=O)C(F)(F)C(F)(F)C(F)(F)C(F)(F)C(F)(F)C(F)(F)F [Perfluorohexanesulfonamide] | > 100 | > 100 | > 100 | > 100 | 96 | 77.8 | 90.8 | 71.2 | 7.84 | 6.45 | > 100 | 58.4 | 49.3 | > 100 | > 100 | > 100 | > 100 | > 100 | 40.8 | > 100 |
| COC(=O)C(F)(F)C(F)(F)OC(F)(C(F)(F)F)C(F)(F)OC(F)=C(F)F (stereo not given) [Methyl_perfluoro(3-(1-ethenyloxypropan-2-yloxy)propanoate)] | > 100 | > 100 | 24.9 | > 100 | > 100 | > 100 | > 100 | > 100 | > 100 | > 100 | > 100 | > 100 | > 100 | > 100 | > 100 | > 100 | > 100 | > 100 | > 100 | > 100 |
| O=C(O)C=C(C(F)(F)F)C(F)(F)F [3,3-Bis(trifluoromethyl)-2-propenoic_acid] | > 100 | > 100 | > 100 | > 100 | > 100 | > 100 | > 100 | > 100 | > 100 | > 100 | > 100 | > 100 | > 100 | > 100 | > 100 | > 100 | > 100 | > 100 | > 100 | > 100 |
| OCC(F)(F)C(F)(F)C(F)(F)C(F)(F)C(F)(F)C(F)F [Dodecafluoroheptanol] | > 100 | > 100 | > 100 | 45 | 47.7 | 48.2 | 50.3 | 46.3 | 7.54 | 48.1 | 35.7 | 45.8 | 51.8 | 38.1 | 47.9 | 38.1 | 48.6 | 50.6 | 42.6 | > 100 |
| CN(CCO)S(=O)(=O)C(F)(F)C(F)(F)C(F)(F)C(F)(F)C(F)(F)C(F)(F)C(F)(F)C(F)(F)F [N-Methyl-N-(2-hydroxyethyl)perfluorooctanesulfonamide] | > 100 | > 100 | > 100 | > 100 | > 100 | > 100 | > 100 | > 100 | – | > 100 | > 100 | > 100 | 69.7 | > 100 | > 100 | 65 | > 100 | > 100 | > 100 | > 100 |
| O=C(O)CCC(F)(F)C(F)(F)C(F)(F)F [3:3 Fluorotelomer carboxylic acid] | – | – | > 100 | > 100 | > 100 | > 100 | > 100 | > 100 | > 100 | > 100 | > 100 | > 100 | > 100 | > 100 | > 100 | > 100 | > 100 | > 100 | > 100 | > 100 |
| NC(O)(C(F)(F)F)C(F)(F)F [2-Aminohexafluoropropan-2-ol] | – | – | > 100 | > 100 | > 100 | > 100 | > 100 | > 100 | > 100 | 72.8 | > 100 | > 100 | > 100 | > 100 | > 100 | > 100 | > 100 | > 100 | > 100 | – |
